According to patent US20260263547A1, “COMPOSITION FOR PREVENTING, AMELIORATING, OR TREATING ARTHRITIS, CONTAINING POTENTILLA CHINENSIS EXTRACT OR APIGENIN-7-O-GLUCURONIDE AS ACTIVE INGREDIENT” (BELABELBIO INC., priority 2023, published 2026):

Experiments:
IL-1β mRNA = assay: LPS-induced IL-1β mRNA expression in RAW264.7 macrophages (real-time PCR); type: cell-based; conditions: LPS 500 ng/mL, 24 hours, extract 50, 100, 200 ppm, apigenin-7-O-glucuronide 50, 100, 200 μM
Experimental: (§1) Specifically, RAW264.7 macrophages were obtained from the American Type Culture Collection (ATCC, MD, USA) and cultured in DMEM medium containing 10% FBS and 1% antibiotic-antimycotic under 5% CO2 at 37° C. The cells were seeded into 6-well plates at a density of 8.0×10^5 cells/1.5 mL/well and allowed to adhere for 24 hours, then treated with LPS (500 ng/mL) in DMEM to induce inflammation. The extract of Potentilla chinensis from Example 1 was treated at concentrations of 50, 100, and 200 ppm, and apigenin-7-O-glucuronide from Example 2 was treated at concentrations of 50, 100, and 200 μM, followed by incubation for 24 hours. After 24 hours, IL-1β mRNA was extracted from the cells, synthesized into cDNA, and quantitative real-time PCR was performed using specific primers to evaluate the expression level of IL-1β.

MMP-9 = assay: PMA-induced MMP-9 secretion in SW-1353 chondrocytes (ELISA); type: cell-based, Human; conditions: PMA 50 ng/mL, 24 hours, apigenin-7-O-glucuronide 50, 100, 200 μM
Experimental: To evaluate the inhibitory efficacy of apigenin-7-O-glucuronide from Example 2 on PMA-induced MMP-9 production in chondrocytes, the amount of MMP-9 secreted was measured using a Human MMP-9 ELISA kit (ab246539, Abcam, USA). Specifically, SW-1353 chondrocytes were obtained from the American Type Culture Collection (ATCC, MD, USA) and cultured in DMEM medium containing 10% FBS and 1% antibiotic-antimycotic under 5% CO2 at 37° C. The cells were seeded into 6-well plates at a density of 2.0×10^5 cells/2.0 mL/well and allowed to adhere for 24 hours, then treated with PMA (50 ng/mL) in DMEM. The extract of Potentilla chinensis from Example 1 was treated at concentrations of 50, 100, and 200 ppm, and apigenin-7-O-glucuronide from Example 2 was treated at concentrations of 50, 100, and 200 μM, followed by incubation for 24 hours. After 24 hours, the amount of MMP-1 in the supernatant was quantified using the ELISA kit, and the results are shown in FIG. 8.

MMP-1 = assay: PMA-induced MMP-1 secretion in SW-1353 chondrocytes (ELISA); type: cell-based, Human; conditions: PMA 50 ng/mL, 24 hours, extract 50, 100, 200 ppm, apigenin-7-O-glucuronide 50, 100, 200 μM
Experimental: To evaluate the inhibitory efficacy of the extract of Potentilla chinensis from Example 1 and apigenin-7-O-glucuronide from Example 2 on PMA-induced MMP-1 production in chondrocytes, the amount of MMP-1 secreted was measured using a Human MMP-1 ELISA kit (ab100603, Abcam, USA). Specifically, SW-1353 chondrocytes were obtained from the American Type Culture Collection (ATCC, MD, USA) and cultured in DMEM medium containing 10% FBS and 1% antibiotic-antimycotic under 5% CO2 at 37° C. The cells were seeded into 6-well plates at a density of 2.0×10^5 cells/2.0 mL/well and allowed to adhere for 24 hours, then treated with PMA (50 ng/mL) in DMEM. The extract of Potentilla chinensis from Example 1 was treated at concentrations of 50, 100, and 200 ppm, and apigenin-7-O-glucuronide from Example 2 was treated at concentrations of 50, 100, and 200 μM, followed by incubation for 24 hours. After 24 hours, the amount of MMP-1 in the supernatant was quantified using the ELISA kit, and the results are shown in FIGS. 6A and 6B.

Collagen Type II Alpha 1 = assay: IL-1β-induced Collagen Type II Alpha 1 synthesis in SW-1353 chondrocytes (ELISA); type: cell-based, Human; conditions: IL-1β 40 ng/ml, 24 hours, extract 50, 100, 200 ppm, apigenin-7-O-glucuronide 50, 100, 200 μM
Experimental: To evaluate the stimulatory efficacy of the extract of Potentilla chinensis from Example 1 and apigenin-7-O-glucuronide from Example 2 on IL-1β-induced Collagen Type II Alpha 1 synthesis in chondrocytes, the secretion of Collagen Type II Alpha 1 was measured using a Human Collagen II Alpha 1 ELISA kit (NBP2-75853, Novus, USA). Specifically, SW-1353 chondrocytes were obtained from the American Type Culture Collection (ATCC, MD, USA) and cultured in DMEM medium containing 10% FBS and 1% antibiotic-antimycotic under 5% CO2 at 37° C. The cells were seeded into 6-well plates at a density of 2.0×10^5 cells/2.0 mL/well and allowed to adhere for 24 hours, then treated with IL-1β (40 ng/ml) in DMEM. The extract of Potentilla chinensis from Example 1 was treated at concentrations of 50, 100, and 200 ppm, and apigenin-7-O-glucuronide from Example 2 was treated at concentrations of 50, 100, and 200 μM, followed by incubation for 24 hours. After 24 hours, the amount of Collagen II Alpha 1 in the supernatant was quantified using the ELISA kit, and the results are shown in FIGS. 9A and 9B.

COX-2 mRNA = assay: LPS-induced COX-2 mRNA expression in RAW264.7 macrophages (real-time PCR); type: cell-based; conditions: LPS 500 ng/mL, 24 hours, extract 50, 100, 200 ppm, apigenin-7-O-glucuronide 50, 100, 200 μM
Experimental: as §1, with “To confirm the inhibitory efficacy of the extract of Potentilla chinensis from Example 1 and apigenin-7-O-glucuronide from Example 2 on LPS-induced COX-2 mRNA expression, the expression level of COX-2 mRNA was measured using real-time polymerase chain reaction (PCR). Specifically,” for “Specifically,”, “cells/2.0” for “cells/1.5”, “COX-2” for “IL-1β”, “COX-2.” for “IL-1β.”

[1] = system: nitric oxide (NO) production; assay: LPS-induced nitric oxide (NO) production in RAW264.7 macrophages (Griess reagent); type: cell-based; conditions: LPS 500 ng/ml, 24 hours, extract 50, 100, 200 ppm, apigenin-7-O-glucuronide 50, 100, 200 μM
Experimental: To confirm the NO-reducing effect of the extract of Potentilla chinensis from Example 1 and apigenin-7-O-glucuronide from Example 2, an inflammatory response was induced with LPS and subsequent changes in NO were measured. Specifically, RAW264.7 macrophages were obtained from the American Type Culture Collection (ATCC, MD, USA) and cultured in DMEM (Dulbecco's Modified Eagle's Medium) containing 10% FBS and 1% antibiotic-antimycotic under 5% CO2 at 37° C. The cells were seeded into 6-well plates at a density of 8.0×10^5 cells/1.5 mL/well and allowed to adhere for 24 hours, then treated with LPS (500 ng/ml) to induce inflammation. The extract of Potentilla chinensis from Example 1 was added at concentrations of 50, 100, and 200 ppm, and apigenin-7-O-glucuronide from Example 2 was added at concentrations of 50, 100, and 200 μM, followed by incubation for 24 hours. Next, 100 μL of the culture supernatant was transferred to a 96-well plate, mixed with 100 μL of Griess reagent (0.1% N-(1-naphtyl)ethylenediamine, 1% sulfanilamide), and reacted for 10 minutes. The absorbance of the resulting azo-derivative was measured at 540 nm using a microplate reader (BioTek, Vermont, USA). The measured absorbance was converted into nitrite concentration using a standard curve prepared with sodium nitrite dilutions, and the amount of NO produced was calculated.

O=C(O)[C@H]1O[C@@H](Oc2cc(O)c3c(=O)cc(-c4ccc(O)cc4)oc3c2)[C@H](O)[C@@H](O)[C@@H]1O [apigenin-7-O-glucuronide]
LPS-induced IL-1β mRNA expression (IL-1β mRNA): significantly inhibited IL-1β mRNA expression in a concentration-dependent manner | PMA-induced MMP-9 secretion (MMP-9): significantly inhibited MMP-9 secretion in a concentration-dependent manner | PMA-induced MMP-1 secretion (MMP-1): significantly inhibited MMP-1 secretion in a concentration-dependent manner | IL-1β-induced Collagen Type II Alpha 1 synthesis (Collagen Type II Alpha 1): significantly increased Collagen Type II Alpha 1 synthesis in a concentration-dependent manner | LPS-induced COX-2 mRNA expression (COX-2 mRNA): significantly inhibited COX-2 mRNA expression | LPS-induced NO production [1]: significantly inhibited NO production in a concentration-dependent manner
